Measurements reported in US11395816B2, “Corroles for treating human cytomegalovirus infections” (UNIVERSITE DE BOURGOGNE, priority 2017, dated 2022).
pIC50: −log10 of the molar value. Read-outs that look alike come from different tables or passages of the source. One block for each molecule: values may come before it.

Experiments:
ARPE-19 cells = test: Toxicity assessment (cytotoxicity) on ARPE-19 cells; assay type: cell-based, human; conditions: for cytotoxicity (in words): ARPE-19 human retinal pigmented epithelium cells, FIG. 1 and Table I
Method: (§1) hCMV infection was carried out on ARPE-19 cells seeded in 96 wells plate, in duplicate at one or two MOI (multiplicity of infection) and 7 concentrations of FNO2Cor, TPFCor, TpNO2Cor. • D0: MRC5/ARPE-19 cells seeded at 6 k per well in Corning Glass Bottom 96 well plates in 200 μL of DMEM without phenol red. • D1: cells were treated with FNO2Cor, TpNO2Cor, TPFCor (from 50 to 0.1 μM by two fold dilutions) in duplicate for the toxicity study. • D3: ARPE-19 cells were treated with Ganciclovir, FNO2Cor, TpNO2Cor, TPFCor (from 5 to 0.07 μM or from 10 to 0.15 μM by two fold dilutions) and were infected at different MOI in duplicate: MOI 10 or 2 for ARPE-19 cells. • D7: ARPE-19 cells at MOI 10 4 d post-infection were fixed with Formalin 10 min at room temperature. Cells were washed with 200 μL PBS and 100 μL PBS/Hoechst® 33342 ( 1/1000) per well. 96 well plates were kept at 4° C. in the dark until data acquisition Image acquisition and analysis for high content quantification was performed on a Thermo Cellomics Arrayscan™ VTI microscope using a modified compartmental analysis algorithm. • D13: ARPE19 cells at MOI 2 10 days post-infection were fixed and image acquisition and analysis were performed as previously described.
(§2) The toxicity of compounds FNO2Cor or TPFCor on ARPE-19 cells was evaluated after 6 days of treatment. 10 concentrations (50, 25, 12.5, 6.25, 3.1, 1.5, 0.75, 0.5, 0.25, 0.1 μM) of FNO2Cor and TPFCor were studied. The compound TpNO2Cor was used as positive control. Cell culture without treatment was used as negative control.
(§3) Cytotoxicity of compounds FNO2Cor, TPFCor and TpNO2Cor were assessed at different concentrations on ARPE-19 cells according to the method described on section 1.3. TpNO2Cor worked as positive reference.

[1] = as above; assay type: cell-based, human; conditions: human; ARPE-19 cells, 6 days of treatment, 0.1-50 μM tested
Method: as §1, §2, §3

hCMV = hCMV infection assay in ARPE-19 cells (infection level and DNA replication by high content microscopy); assay type: cell-based, human cytomegalovirus
Method: ARPE-19 human retinal pigmented epithelium cells were used for hCMV infection assay.
Cells were grown in DMEM without phenol red (Sigma-Aldrich) 10% SVF, Pen-strep, 1× sodium pyruvate, 1× Glutamax.
as §1
On 4 d and 10 d post-infection (2 post-infection times), data acquisition per virus and cell line was done by high content microscopy to calculate infection level and DNA replication according to compound concentration.
Compounds FNO2Cor, TPFCor, TpNO2Cor and anti-hCMV drug Ganciclovir were assessed at 8 different concentrations in ARPE-19 cell culture on 4 days post-infection (FIGS. 2A, 2B) or on 10 days post-infection (FIGS. 3A, 3B) to evaluate their activity for inhibiting hCMV infection and their capacity for inhibiting hCMV replication in ARPE-19 cells.

[2] = already known, Gros et al., 2015; cited from earlier work
[3] = Human betaherpesvirus 5, ARPE-19, 96 h, read-out: IC50 ARPE (infection inhibition)
[4] = Human betaherpesvirus 5, ARPE-19, 96 h, read-out: IC50 ARPE (replication inhibition)
[5] = Human betaherpesvirus 5, ARPE-19, 240 h, read-out: IC50 ARPE (infection inhibition)
[6] = Human betaherpesvirus 5, ARPE-19, 240 h, read-out: IC50 ARPE (replication inhibition)
[7] = Table V, head prints 4 d PI, text says 10 d PI

Compound: O=[N+]([O-])c1ccc(F)c(-c2c3nc(c4ccc([nH]4)c(-c4cc([N+](=O)[O-])ccc4F)c4ccc([nH]4)c(-c4cc([N+](=O)[O-])ccc4F)c4ccc2[nH]4)C=C3)c1 [FNO2Cor, 5,10,15-Tris(2-fluoro-5-nitrophenyl)corrole]
cytotoxicity (in words) (ARPE-19 cells): safe
CC50 at 6 days [1]: 50 µM
Selectivity index (infection inhibition) (hCMV; 4 d PI, Table III): 21.05
Selectivity index (replication inhibition) (hCMV; 4 d PI, Table III): 8.45
pIC50 (hCMV; [3]): 5.62
pIC50 (hCMV; [4]): 5.23
pIC50 (hCMV; [5]): 5.90
pIC50 (hCMV; [6]): 4.93
Selectivity index (infection inhibition) (hCMV; [7]): 39.94
Selectivity index (replication inhibition) (hCMV; [7]): 4.24

Compound: Fc1c(F)c(F)c(-c2c3nc(c4ccc([nH]4)c(-c4c(F)c(F)c(F)c(F)c4F)c4ccc([nH]4)c(-c4c(F)c(F)c(F)c(F)c4F)c4ccc2[nH]4)C=C3)c(F)c1F [TPFCor, 5,10,15-Tris(pentafluorophenyl)corrole]
cytotoxicity (in words) (ARPE-19 cells): safe
CC50 at 6 days [1]: 26.1 µM
Selectivity index (infection inhibition) (hCMV; 4 d PI, Table III): 7.38
Selectivity index (replication inhibition) (hCMV; 4 d PI, Table III): 16.28
pIC50 (hCMV; [3]): 5.45
pIC50 (hCMV; [4]): 5.80
pIC50 (hCMV; [5]): 6.02
pIC50 (hCMV; [6]): 4.91
Selectivity index (infection inhibition) (hCMV; [7]): 27.04
Selectivity index (replication inhibition) (hCMV; [7]): 2.12

pIC50 (hCMV; 4 d PI, MOI 10, ARPE-19 cells, read-out: IC50 ARPE (infection inhibition)): 5.40
pIC50 (hCMV; 4 d PI, MOI 10, ARPE-19 cells, read-out: IC50 ARPE (replication inhibition)): 5.08
pIC50 (hCMV; 10 d PI, MOI 2, ARPE-19 cells, read-out: IC50 ARPE (infection inhibition)): 5.75
Compound: O=[N+]([O-])c1ccc(-c2c3nc(c4ccc([nH]4)c(-c4ccc([N+](=O)[O-])cc4)c4ccc([nH]4)c(-c4ccc([N+](=O)[O-])cc4)c4ccc2[nH]4)C=C3)cc1 [TpNO2Cor, 5,10,15-Tris(4-nitrophenyl)corrole, reference compound]
cytotoxicity (in words) [2]: not cytotoxic
CC50 (ARPE-19 cells): 25 µM
